Measured values taken from patent publication US20070219266A1, “N-Acylated-3-(Benzoyl)-Pyrrolidines as 11-Beta-HSD1 Inhibitors Useful for the Treatment of Metabolic Disorders” (priority 2003, published 2007).

What follows are molecules tested against T1, human 11βHSD1 (Homo sapiens, UniProt P28845) (assay: HeLa GRE4-βGal/11βHSD1 cell reporter assay (cortisone to cortisol conversion, β-galactosidase readout)). Settings: HeLa GRE4-βGal/11βHSD1 cells, cortisone 1 μM, overnight incubation, absorbance at 570 nm.
T1 construct: stably transfected with a construct containing full-length human 11βHSD1 enzyme (in pCMVHyg); expressed in transfected cells
T1 sequence (P28845 whole entry): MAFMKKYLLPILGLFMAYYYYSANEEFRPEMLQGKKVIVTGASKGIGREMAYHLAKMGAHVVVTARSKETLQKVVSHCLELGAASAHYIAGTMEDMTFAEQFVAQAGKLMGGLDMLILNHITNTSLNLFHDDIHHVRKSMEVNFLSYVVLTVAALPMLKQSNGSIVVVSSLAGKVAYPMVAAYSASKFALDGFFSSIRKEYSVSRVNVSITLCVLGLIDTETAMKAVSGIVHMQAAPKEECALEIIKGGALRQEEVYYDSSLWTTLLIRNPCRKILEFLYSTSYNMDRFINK
Type: cell-based
Description: HeLa cells (human cervical carcinoma derived cells) were stably transfected with a construct containing four copies of the glucocorticoid response element (GRE) linked to a beta-galactosidase reporter gene (3 kb lac Z gene derived from pSV-B-galactosidase). These cells were then further stably transfected with a construct containing full-length human 11βHSD1 enzyme (in pCMVHyg) to create GRE4-βGal/11βHSD1 cells. The principal of the assay is as follows. Cortisone is freely taken up by the cells and is converted to cortisol by 11βHSD1 oxo-reductase activity and cortisol (but not cortisone) binds to and activates the glucocorticoid receptor. Activated glucocorticoid receptor then binds to the GRE and initiates transcription and translation of β-galactosidase. Enzyme activity can then be assayed with high sensitivity by colourimetric assay.
Cells were routinely cultured in DMEM (Invitrogen, Paisley, Renfrewshire, UK) containing 10% foetal calf serum (LabTech), 1% glutamine (Invitrogen), 1% penicillin & streptomycin (Invitrogen), 0.5 mg/ml G418 (Invitrogen) & 0.5 mg/ml hygromycin (Boehringer). Assay media was phenol red free-DMEM containing 1% glutamine, 1% penicillin & streptomycin.
Compounds (1 mM) to be tested were dissolved in dimethyl sulphoxide (DMSO) and serially diluted into assay media containing […]. […]
A cocktail (25 μl) consisting of 10× Z-buffer (600 mM Na2HPO4, 400 mM NaH2PO4.2H2O, 100 mM KCl, 10 mM MgSO4.7H2O, 500 mM β-mercaptoethanol, pH 7.0), SDS (0.2%), chlorophenol red-β-D-galactopyranoside (5 mM, Roche Diagnostics) was added per well and plates incubated at 37° C. for 3-4 hours. β-Galactosidase activity was indicated by a yellow to red colour change (absorbance at 570 nm) measured using a Tecan Spectrafluor Ultra.
The calculation of median inhibitory concentration (IC50) values for the inhibitors was performed using Origin 6.0 (Microcal Software, Northampton Mass. USA). Dose response curves for each inhibitor were plotted as OD units at each inhibitor concentration with relation to a maximum signal (cortisone, no compound) and IC50 values calculated. […]

IC50 [nM] | Compound
447 | O=C(c1ccc(F)cc1)C1CCN(S(=O)(=O)c2ccc(F)cc2)C1 (stereo not drawn) [Example 18]
75 | O=C(c1ccc(F)cc1)C1CCN(C(=O)c2ccc(Cl)cc2)C1 (stereo not drawn) [Example 5]
70 | O=C(c1ccc(F)cc1)C1CCN(C(=O)c2ccccc2Cl)C1 (stereo not drawn) [Example 7]
